Experimental data reported in PubChem BioAssay (NCI).
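96-well plates; 48 h exposure; 5 concentrations. Endpoints by linear interpolation between flanking doses. Not reached: highest tested concentration assigned. TGI is the concentration that stops growth completely.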

The compounds below were run on MALME-3M melanoma (assay: inhibition of tumour cell growth, NCI panel, 48 h).
For `CC1=Nc2ccccc2OC(C)=C1N=Nc1ccc2nc(C)[nH]c2c1`, the TGI was > 100 µM.
With `Cc1cccc(Cn2c3c(c4cc(O)ccc42)C(=O)c2ccccc2C3=O)c1` the TGI was > 100 µM.

The compounds below were run on SK-MEL-2 melanoma (assay: inhibition of tumour cell growth, NCI panel, 48 h).
`CC(=O)/C=C/C1=C(C)CCCC1(C)CC(C)C` (stereo not drawn) showed a TGI of 43.5 µM.
`O=[N+]([O-])c1ccc2[nH]nc(OCc3ccccc3Cl)c2c1` gave a TGI of 90.6 µM.
For `C=C1CCN2CC[C@@H](OC(=O)/C(C)=C\C)[C@@H]12`, the TGI was > 100 µM.
With `O=C(N/N=C/c1ccc(Cl)cc1)c1c(Cl)c(Cl)c(Cl)c(Cl)c1-c1nc2ccccc2[nH]1` the TGI was > 100 µM.
`CCOC(=S)SCC(=O)O` was tested, and the TGI was > 100 µM.
`CC1=Nc2ccccc2OC(C)=C1N=Nc1ccc2nc(C)[nH]c2c1` was tested, and the TGI was > 100 µM.
In the case of `Cc1cccc(Cn2c3c(c4cc(O)ccc42)C(=O)c2ccccc2C3=O)c1`, the TGI is reported as > 100 µM.

Each compound was assayed on NCI-H522 lung (assay: inhibition of tumour cell growth, NCI panel, 48 h).
Work on `CC(=O)/C=C/C1=C(C)CCCC1(C)CC(C)C` (stereo not drawn) yielded a TGI of 57.8 µM.
Work on `O=[N+]([O-])c1ccc2[nH]nc(OCc3ccccc3Cl)c2c1` yielded a TGI of 72.7 µM.
In the case of `C=C1CCN2CC[C@@H](OC(=O)/C(C)=C\C)[C@@H]12`, the TGI is reported as > 100 µM.
With `O=C(N/N=C/c1ccc(Cl)cc1)c1c(Cl)c(Cl)c(Cl)c(Cl)c1-c1nc2ccccc2[nH]1` the TGI was > 100 µM.
`CCOC(=S)SCC(=O)O` was tested, and the TGI was > 100 µM.
In the case of `CC1=Nc2ccccc2OC(C)=C1N=Nc1ccc2nc(C)[nH]c2c1`, the TGI is reported as > 100 µM.

What follows are compounds tested on RPMI-8226 leukemia (assay: inhibition of tumour cell growth, NCI panel, 48 h).
For `CC(=O)/C=C/C1=C(C)CCCC1(C)CC(C)C` (stereo not drawn), the TGI was 36 µM.
In the case of `O=[N+]([O-])c1ccc2[nH]nc(OCc3ccccc3Cl)c2c1`, the TGI is reported as > 100 µM.
For `C=C1CCN2CC[C@@H](OC(=O)/C(C)=C\C)[C@@H]12`, the TGI was > 100 µM.
With `O=C(N/N=C/c1ccc(Cl)cc1)c1c(Cl)c(Cl)c(Cl)c(Cl)c1-c1nc2ccccc2[nH]1` the TGI was > 100 µM.
For `CCOC(=S)SCC(=O)O`, the TGI was > 100 µM.
With `CC1=Nc2ccccc2OC(C)=C1N=Nc1ccc2nc(C)[nH]c2c1` the TGI was > 100 µM.
With `Cc1cccc(Cn2c3c(c4cc(O)ccc42)C(=O)c2ccccc2C3=O)c1` the TGI was > 30.6 µM.

The compounds below were run on MDA-N (assay: inhibition of tumour cell growth, NCI panel, 48 h).
For `CC(=O)/C=C/C1=C(C)CCCC1(C)CC(C)C` (stereo not drawn), the TGI was > 100 µM.
In the case of `O=[N+]([O-])c1ccc2[nH]nc(OCc3ccccc3Cl)c2c1`, the TGI is reported as > 100 µM.
For `C=C1CCN2CC[C@@H](OC(=O)/C(C)=C\C)[C@@H]12`, the TGI was > 100 µM.
In the case of `O=C(N/N=C/c1ccc(Cl)cc1)c1c(Cl)c(Cl)c(Cl)c(Cl)c1-c1nc2ccccc2[nH]1`, the TGI is reported as > 100 µM.
With `CCOC(=S)SCC(=O)O` the TGI was > 100 µM.
With `CC1=Nc2ccccc2OC(C)=C1N=Nc1ccc2nc(C)[nH]c2c1` the TGI was > 100 µM.
In the case of `Cc1cccc(Cn2c3c(c4cc(O)ccc42)C(=O)c2ccccc2C3=O)c1`, the TGI is reported as > 100 µM.

These compounds were tested on IGROV1 ovarian (assay: inhibition of tumour cell growth, NCI panel, 48 h).
For `CC(=O)/C=C/C1=C(C)CCCC1(C)CC(C)C` (stereo not drawn), the TGI was > 100 µM.
In the case of `O=[N+]([O-])c1ccc2[nH]nc(OCc3ccccc3Cl)c2c1`, the TGI is reported as > 100 µM.
In the case of `C=C1CCN2CC[C@@H](OC(=O)/C(C)=C\C)[C@@H]12`, the TGI is reported as > 100 µM.
In the case of `O=C(N/N=C/c1ccc(Cl)cc1)c1c(Cl)c(Cl)c(Cl)c(Cl)c1-c1nc2ccccc2[nH]1`, the TGI is reported as > 100 µM.
With `CCOC(=S)SCC(=O)O` the TGI was > 100 µM.
`CC1=Nc2ccccc2OC(C)=C1N=Nc1ccc2nc(C)[nH]c2c1` was tested, and the TGI was > 100 µM.
For `Cc1cccc(Cn2c3c(c4cc(O)ccc42)C(=O)c2ccccc2C3=O)c1`, the TGI was > 71 µM.

The compounds below were run on 786-0 renal (assay: inhibition of tumour cell growth, NCI panel, 48 h).
`CC(=O)/C=C/C1=C(C)CCCC1(C)CC(C)C` (stereo not drawn) was tested, and the TGI was 45.2 µM.
`O=[N+]([O-])c1ccc2[nH]nc(OCc3ccccc3Cl)c2c1` showed a TGI of 59.4 µM.
`C=C1CCN2CC[C@@H](OC(=O)/C(C)=C\C)[C@@H]12` was tested, and the TGI was > 100 µM.
For `O=C(N/N=C/c1ccc(Cl)cc1)c1c(Cl)c(Cl)c(Cl)c(Cl)c1-c1nc2ccccc2[nH]1`, the TGI was > 100 µM.
In the case of `CCOC(=S)SCC(=O)O`, the TGI is reported as > 100 µM.
In the case of `CC1=Nc2ccccc2OC(C)=C1N=Nc1ccc2nc(C)[nH]c2c1`, the TGI is reported as > 100 µM.
In the case of `Cc1cccc(Cn2c3c(c4cc(O)ccc42)C(=O)c2ccccc2C3=O)c1`, the TGI is reported as 26.6 µM.

The compounds below were run on SNB-19 CNS (assay: inhibition of tumour cell growth, NCI panel, 48 h).
In the case of `CC(=O)/C=C/C1=C(C)CCCC1(C)CC(C)C` (stereo not drawn), the TGI is reported as > 100 µM.
For `O=[N+]([O-])c1ccc2[nH]nc(OCc3ccccc3Cl)c2c1`, the TGI was > 100 µM.
For `C=C1CCN2CC[C@@H](OC(=O)/C(C)=C\C)[C@@H]12`, the TGI was > 100 µM.
With `O=C(N/N=C/c1ccc(Cl)cc1)c1c(Cl)c(Cl)c(Cl)c(Cl)c1-c1nc2ccccc2[nH]1` the TGI was > 100 µM.
For `CCOC(=S)SCC(=O)O`, the TGI was > 100 µM.
With `CC1=Nc2ccccc2OC(C)=C1N=Nc1ccc2nc(C)[nH]c2c1` the TGI was > 100 µM.
For `Cc1cccc(Cn2c3c(c4cc(O)ccc42)C(=O)c2ccccc2C3=O)c1`, the TGI was > 100 µM.

The compounds below were run on MDA-MB-435 (assay: inhibition of tumour cell growth, NCI panel, 48 h).
For `CC(=O)/C=C/C1=C(C)CCCC1(C)CC(C)C` (stereo not drawn), the TGI was > 100 µM.
With `O=[N+]([O-])c1ccc2[nH]nc(OCc3ccccc3Cl)c2c1` the TGI was > 100 µM.
With `C=C1CCN2CC[C@@H](OC(=O)/C(C)=C\C)[C@@H]12` the TGI was > 100 µM.
With `O=C(N/N=C/c1ccc(Cl)cc1)c1c(Cl)c(Cl)c(Cl)c(Cl)c1-c1nc2ccccc2[nH]1` the TGI was > 100 µM.
In the case of `CCOC(=S)SCC(=O)O`, the TGI is reported as > 100 µM.
For `CC1=Nc2ccccc2OC(C)=C1N=Nc1ccc2nc(C)[nH]c2c1`, the TGI was > 100 µM.
`Cc1cccc(Cn2c3c(c4cc(O)ccc42)C(=O)c2ccccc2C3=O)c1` was tested, and the TGI was > 100 µM.

These compounds were tested on NCI/ADR-RES ovarian (assay: inhibition of tumour cell growth, NCI panel, 48 h).
With `O=[N+]([O-])c1ccc2[nH]nc(OCc3ccccc3Cl)c2c1` the TGI was > 100 µM.
With `C=C1CCN2CC[C@@H](OC(=O)/C(C)=C\C)[C@@H]12` the TGI was > 100 µM.
`O=C(N/N=C/c1ccc(Cl)cc1)c1c(Cl)c(Cl)c(Cl)c(Cl)c1-c1nc2ccccc2[nH]1` was tested, and the TGI was > 100 µM.
In the case of `CCOC(=S)SCC(=O)O`, the TGI is reported as > 100 µM.
In the case of `CC1=Nc2ccccc2OC(C)=C1N=Nc1ccc2nc(C)[nH]c2c1`, the TGI is reported as > 100 µM.
With `Cc1cccc(Cn2c3c(c4cc(O)ccc42)C(=O)c2ccccc2C3=O)c1` the TGI was > 67.8 µM.

What follows are compounds tested on ACHN renal (assay: inhibition of tumour cell growth, NCI panel, 48 h).
`CC(=O)/C=C/C1=C(C)CCCC1(C)CC(C)C` (stereo not drawn) was tested, and the TGI was 47.9 µM.
Compound `O=[N+]([O-])c1ccc2[nH]nc(OCc3ccccc3Cl)c2c1` has a TGI of 62.1 µM.
For `C=C1CCN2CC[C@@H](OC(=O)/C(C)=C\C)[C@@H]12`, the TGI was > 100 µM.
For `O=C(N/N=C/c1ccc(Cl)cc1)c1c(Cl)c(Cl)c(Cl)c(Cl)c1-c1nc2ccccc2[nH]1`, the TGI was > 100 µM.
For `CCOC(=S)SCC(=O)O`, the TGI was > 100 µM.
In the case of `CC1=Nc2ccccc2OC(C)=C1N=Nc1ccc2nc(C)[nH]c2c1`, the TGI is reported as > 100 µM.
With `Cc1cccc(Cn2c3c(c4cc(O)ccc42)C(=O)c2ccccc2C3=O)c1` the TGI was > 100 µM.

These compounds were tested on HS 578T breast (assay: inhibition of tumour cell growth, NCI panel, 48 h).
With `CC(=O)/C=C/C1=C(C)CCCC1(C)CC(C)C` (stereo not drawn) the TGI was > 100 µM.
With `O=[N+]([O-])c1ccc2[nH]nc(OCc3ccccc3Cl)c2c1` the TGI was > 100 µM.
`C=C1CCN2CC[C@@H](OC(=O)/C(C)=C\C)[C@@H]12` was tested, and the TGI was > 100 µM.
`O=C(N/N=C/c1ccc(Cl)cc1)c1c(Cl)c(Cl)c(Cl)c(Cl)c1-c1nc2ccccc2[nH]1` was tested, and the TGI was > 100 µM.
In the case of `CCOC(=S)SCC(=O)O`, the TGI is reported as > 100 µM.
In the case of `Cc1cccc(Cn2c3c(c4cc(O)ccc42)C(=O)c2ccccc2C3=O)c1`, the TGI is reported as > 100 µM.

Each compound was assayed on MDA-MB-231 breast (assay: inhibition of tumour cell growth, NCI panel, 48 h).
`CC(=O)/C=C/C1=C(C)CCCC1(C)CC(C)C` (stereo not drawn) was tested, and the TGI was > 100 µM.
In the case of `O=[N+]([O-])c1ccc2[nH]nc(OCc3ccccc3Cl)c2c1`, the TGI is reported as > 100 µM.
With `C=C1CCN2CC[C@@H](OC(=O)/C(C)=C\C)[C@@H]12` the TGI was > 100 µM.
For `CCOC(=S)SCC(=O)O`, the TGI was > 100 µM.
With `CC1=Nc2ccccc2OC(C)=C1N=Nc1ccc2nc(C)[nH]c2c1` the TGI was > 100 µM.
In the case of `Cc1cccc(Cn2c3c(c4cc(O)ccc42)C(=O)c2ccccc2C3=O)c1`, the TGI is reported as > 70.8 µM.

Each compound was assayed on K-562 leukemia (assay: inhibition of tumour cell growth, NCI panel, 48 h).
In the case of `CC(=O)/C=C/C1=C(C)CCCC1(C)CC(C)C` (stereo not drawn), the TGI is reported as 40.8 µM.
In the case of `O=[N+]([O-])c1ccc2[nH]nc(OCc3ccccc3Cl)c2c1`, the TGI is reported as > 100 µM.
With `C=C1CCN2CC[C@@H](OC(=O)/C(C)=C\C)[C@@H]12` the TGI was > 100 µM.
`O=C(N/N=C/c1ccc(Cl)cc1)c1c(Cl)c(Cl)c(Cl)c(Cl)c1-c1nc2ccccc2[nH]1` was tested, and the TGI was > 100 µM.
In the case of `CCOC(=S)SCC(=O)O`, the TGI is reported as > 100 µM.
With `CC1=Nc2ccccc2OC(C)=C1N=Nc1ccc2nc(C)[nH]c2c1` the TGI was > 100 µM.
With `Cc1cccc(Cn2c3c(c4cc(O)ccc42)C(=O)c2ccccc2C3=O)c1` the TGI was > 100 µM.

The compounds below were run on T-47D breast (assay: inhibition of tumour cell growth, NCI panel, 48 h).
`CC(=O)/C=C/C1=C(C)CCCC1(C)CC(C)C` (stereo not drawn) showed a TGI of 55.5 µM.
Work on `O=[N+]([O-])c1ccc2[nH]nc(OCc3ccccc3Cl)c2c1` yielded a TGI of 42.9 µM.
With `C=C1CCN2CC[C@@H](OC(=O)/C(C)=C\C)[C@@H]12` the TGI was > 100 µM.
With `O=C(N/N=C/c1ccc(Cl)cc1)c1c(Cl)c(Cl)c(Cl)c(Cl)c1-c1nc2ccccc2[nH]1` the TGI was 47.5 µM.
With `CCOC(=S)SCC(=O)O` the TGI was > 100 µM.
For `CC1=Nc2ccccc2OC(C)=C1N=Nc1ccc2nc(C)[nH]c2c1`, the TGI was > 100 µM.
In the case of `Cc1cccc(Cn2c3c(c4cc(O)ccc42)C(=O)c2ccccc2C3=O)c1`, the TGI is reported as > 100 µM.

These compounds were tested on HOP-62 NSCLC (assay: inhibition of tumour cell growth, NCI panel, 48 h).
`CC(=O)/C=C/C1=C(C)CCCC1(C)CC(C)C` (stereo not drawn) was tested, and the TGI was > 100 µM.
In the case of `O=[N+]([O-])c1ccc2[nH]nc(OCc3ccccc3Cl)c2c1`, the TGI is reported as > 100 µM.
